Measured values: ChEMBL document CHEMBL4715815, “Design, synthesis and biological evaluation of 7H-pyrrolo[2,3-d]pyrimidin-4-amine derivatives as selective Btk inhibitors with improved pharmacokinetic properties for the treatment of rheumatoid arthritis” (Eur J Med Chem, 2018)
Calls of active or inactive are those of the source. The rule behind the calls is not given here.

How the values were obtained:
[1] = target: Receptor tyrosine-protein kinase erbB-2 (Homo sapiens, UniProt P04626); assay: Inhibition of ErBB2 (unknown origin)
[2] = target: Tyrosine-protein kinase JAK3 (Homo sapiens, UniProt P52333); assay: Inhibition of recombinant human JAK3 using Ulight-CAGAGAIETDKEYYTVKD as substrate incubate for 60 mins by LANCE assay
[3] = Toxicity in BALB/c mouse assessed as effect on liver at 2 g/kg, po measured after 7 days of administration by histopathological analysis; conditions: in vivo, 168 h
[4] = target: T1, Tyrosine-protein kinase BTK (Homo sapiens, UniProt Q06187); assay: Inhibition of BTK in human U2932 cells assessed as reduction in BTK Y551 phosphorylation at 0.03 to 10 uM incubated for 1 hr by Western blot analysis; type: cell-based; conditions: dose 0.03-10 µM
T1 sequence (Q06187 whole entry): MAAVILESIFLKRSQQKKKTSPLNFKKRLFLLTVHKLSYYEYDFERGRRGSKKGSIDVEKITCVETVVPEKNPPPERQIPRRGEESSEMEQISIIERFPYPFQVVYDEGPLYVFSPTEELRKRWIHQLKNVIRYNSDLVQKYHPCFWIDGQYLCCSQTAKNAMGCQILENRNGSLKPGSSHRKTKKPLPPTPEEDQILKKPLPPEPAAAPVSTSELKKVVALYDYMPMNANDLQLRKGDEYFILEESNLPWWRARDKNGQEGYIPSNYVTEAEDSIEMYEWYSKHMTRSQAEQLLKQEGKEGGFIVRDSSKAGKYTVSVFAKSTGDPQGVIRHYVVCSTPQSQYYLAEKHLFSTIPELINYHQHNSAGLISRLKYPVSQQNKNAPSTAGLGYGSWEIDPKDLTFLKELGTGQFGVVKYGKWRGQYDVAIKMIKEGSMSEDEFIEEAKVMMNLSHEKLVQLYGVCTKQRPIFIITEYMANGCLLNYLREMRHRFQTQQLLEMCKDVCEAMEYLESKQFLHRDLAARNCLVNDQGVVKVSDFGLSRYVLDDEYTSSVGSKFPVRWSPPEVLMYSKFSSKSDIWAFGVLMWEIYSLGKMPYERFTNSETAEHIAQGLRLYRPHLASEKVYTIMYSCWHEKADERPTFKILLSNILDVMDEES

[5] = target: Proto-oncogene tyrosine-protein kinase receptor Ret (Homo sapiens, UniProt P07949); assay: Inhibition of RET (unknown origin)
[6] = Metabolic stability in mouse liver microsomes assessed as intrinsic clearance at 100 uM/L measured upto 90 mins by LC-MS/MS analysis; type: ADME, Microsome; conditions: 1.5 h
[7] = target: Mitogen-activated protein kinase kinase kinase 7 (Homo sapiens, UniProt O43318); assay: Inhibition of recombinant human TAK1 using Ulight-FLGFTYVAP as substrate incubate for 90 mins by LANCE assay
Chain of Mitogen-activated protein kinase kinase kinase 7 (O43318 whole entry): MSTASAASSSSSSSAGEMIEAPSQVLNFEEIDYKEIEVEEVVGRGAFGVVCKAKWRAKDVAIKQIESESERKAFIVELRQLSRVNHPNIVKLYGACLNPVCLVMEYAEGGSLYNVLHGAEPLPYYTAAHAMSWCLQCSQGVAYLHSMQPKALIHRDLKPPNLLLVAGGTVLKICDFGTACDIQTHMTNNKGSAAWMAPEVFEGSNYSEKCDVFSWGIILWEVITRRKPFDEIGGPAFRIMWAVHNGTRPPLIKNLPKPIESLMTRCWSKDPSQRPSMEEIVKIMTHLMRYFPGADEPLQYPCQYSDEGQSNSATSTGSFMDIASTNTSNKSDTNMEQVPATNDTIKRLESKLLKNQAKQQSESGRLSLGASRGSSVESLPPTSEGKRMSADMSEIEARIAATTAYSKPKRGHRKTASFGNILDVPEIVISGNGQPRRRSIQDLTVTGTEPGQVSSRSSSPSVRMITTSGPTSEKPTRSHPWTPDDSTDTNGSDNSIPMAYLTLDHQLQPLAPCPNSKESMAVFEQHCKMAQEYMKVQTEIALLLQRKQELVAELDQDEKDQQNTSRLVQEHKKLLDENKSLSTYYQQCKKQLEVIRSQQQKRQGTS

L02 = assay: Cytotoxicity against human L02 cells assessed as reduction in cell viability incubated for 72 hrs by MTT assay; type: ADME, cell-based; conditions: L02, 72 h
[8] = target: Tyrosine-protein kinase TXK (Homo sapiens, UniProt P42681); assay: Inhibition of TXK (unknown origin)
Chain of Tyrosine-protein kinase TXK (P42681 whole entry): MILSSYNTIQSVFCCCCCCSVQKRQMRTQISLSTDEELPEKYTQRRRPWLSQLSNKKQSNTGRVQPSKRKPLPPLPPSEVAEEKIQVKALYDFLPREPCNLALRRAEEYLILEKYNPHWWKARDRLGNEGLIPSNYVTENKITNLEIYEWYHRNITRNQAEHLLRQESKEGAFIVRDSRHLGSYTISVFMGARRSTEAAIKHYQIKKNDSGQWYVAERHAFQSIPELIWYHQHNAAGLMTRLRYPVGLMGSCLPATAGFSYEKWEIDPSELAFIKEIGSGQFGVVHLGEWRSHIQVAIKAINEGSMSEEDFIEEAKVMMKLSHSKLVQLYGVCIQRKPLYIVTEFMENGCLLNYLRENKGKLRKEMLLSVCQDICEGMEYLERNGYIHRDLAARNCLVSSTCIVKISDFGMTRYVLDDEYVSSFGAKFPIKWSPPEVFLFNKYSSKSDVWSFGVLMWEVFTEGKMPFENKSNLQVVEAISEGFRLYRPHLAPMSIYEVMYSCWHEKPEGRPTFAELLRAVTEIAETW

Mus musculus = assay: Antiarthritic activity in DBA/1J mouse model of collagen-induced arthritis at 20 mg/kg, po administered for 30 days and measured on day 30; type: functional, organism-based; conditions: time 30.0 day
[9] = target: Calcium/calmodulin-dependent protein kinase type IV (Homo sapiens, UniProt Q16566); assay: Inhibition of CAMK4 (unknown origin)
[10] = target: Tyrosine-protein kinase SYK (Homo sapiens, UniProt P43405); assay: Inhibition of SYK (unknown origin)
[11] = Metabolic stability in rat liver microsomes assessed as intrinsic clearance at 100 uM/L measured upto 90 mins by LC-MS/MS analysis; type: ADME, Microsome; conditions: 1.5 h
[12] = target: Mitogen-activated protein kinase kinase kinase 2 (Homo sapiens, UniProt Q9Y2U5); assay: Inhibition of MEKK2 (unknown origin)
Chain of Mitogen-activated protein kinase kinase kinase 2 (Q9Y2U5 whole entry): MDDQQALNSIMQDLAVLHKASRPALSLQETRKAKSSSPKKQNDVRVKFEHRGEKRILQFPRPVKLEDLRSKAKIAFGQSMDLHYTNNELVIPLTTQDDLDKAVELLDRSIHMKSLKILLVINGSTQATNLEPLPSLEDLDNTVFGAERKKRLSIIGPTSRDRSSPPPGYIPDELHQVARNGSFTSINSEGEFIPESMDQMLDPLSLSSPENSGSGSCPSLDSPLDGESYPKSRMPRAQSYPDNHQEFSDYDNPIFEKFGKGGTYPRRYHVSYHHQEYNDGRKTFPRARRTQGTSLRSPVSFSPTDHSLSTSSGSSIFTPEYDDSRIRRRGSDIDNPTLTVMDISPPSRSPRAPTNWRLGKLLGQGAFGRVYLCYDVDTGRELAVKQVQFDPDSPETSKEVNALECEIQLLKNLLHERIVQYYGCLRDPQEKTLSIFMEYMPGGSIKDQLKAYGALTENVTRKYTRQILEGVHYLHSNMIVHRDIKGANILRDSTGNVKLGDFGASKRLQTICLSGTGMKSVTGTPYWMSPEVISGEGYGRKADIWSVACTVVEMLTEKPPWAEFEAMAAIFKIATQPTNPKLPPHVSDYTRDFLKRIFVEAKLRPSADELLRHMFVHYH

[13] = target: Dual specificity mitogen-activated protein kinase kinase 2 (Homo sapiens, UniProt P36507); assay: Inhibition of MEK2 (unknown origin)
[14] = target: Tyrosine-protein kinase ITK/TSK (Homo sapiens, UniProt Q08881); assay: Inhibition of ITK (unknown origin)
Chain of Tyrosine-protein kinase ITK/TSK (Q08881 whole entry): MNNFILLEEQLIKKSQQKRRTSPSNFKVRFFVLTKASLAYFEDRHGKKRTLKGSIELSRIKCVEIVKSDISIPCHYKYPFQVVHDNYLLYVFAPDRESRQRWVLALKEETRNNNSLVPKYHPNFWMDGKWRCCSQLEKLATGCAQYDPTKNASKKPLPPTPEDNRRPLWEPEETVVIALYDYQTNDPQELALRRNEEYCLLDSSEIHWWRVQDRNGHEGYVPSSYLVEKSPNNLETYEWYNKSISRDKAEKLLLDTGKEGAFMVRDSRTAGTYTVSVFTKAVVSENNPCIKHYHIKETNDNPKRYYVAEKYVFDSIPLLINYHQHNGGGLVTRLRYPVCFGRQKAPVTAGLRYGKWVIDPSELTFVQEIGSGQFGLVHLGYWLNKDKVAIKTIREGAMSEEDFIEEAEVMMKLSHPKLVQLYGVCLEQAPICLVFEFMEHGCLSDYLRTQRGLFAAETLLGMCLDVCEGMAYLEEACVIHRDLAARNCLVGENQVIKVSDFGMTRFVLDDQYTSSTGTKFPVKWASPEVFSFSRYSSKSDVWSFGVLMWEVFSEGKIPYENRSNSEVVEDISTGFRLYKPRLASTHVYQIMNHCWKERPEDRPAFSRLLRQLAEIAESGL

[15] = Toxicity in BALB/c mouse assessed as effect on lung at 2 g/kg, po measured after 7 days of administration by histopathological analysis; conditions: in vivo, 168 h
[16] = target: T1, Tyrosine-protein kinase BTK; assay: Inhibition of BTK in human Raji cells assessed as reduction in PLCgamma2 Y1217 phosphorylation at 0.03 to 10 uM incubated for 1 hr by Western blot analysis; type: cell-based; conditions: dose 0.03-10 µM
[17] = target: T1, Tyrosine-protein kinase BTK; assay: Inhibition of BTK in human Raji cells assessed as reduction in BTK Y223 phosphorylation incubated for 1 hr by Western blot analysis; type: cell-based; conditions: dose 0.03-10 µM
[18] = target: Ribosomal protein S6 kinase beta-1 (Homo sapiens, UniProt P23443); assay: Inhibition of recombinant human p70S6K using CREBtide as substrate incubate for 15 mins by LANCE assay
Chain of Ribosomal protein S6 kinase beta-1 (P23443 whole entry): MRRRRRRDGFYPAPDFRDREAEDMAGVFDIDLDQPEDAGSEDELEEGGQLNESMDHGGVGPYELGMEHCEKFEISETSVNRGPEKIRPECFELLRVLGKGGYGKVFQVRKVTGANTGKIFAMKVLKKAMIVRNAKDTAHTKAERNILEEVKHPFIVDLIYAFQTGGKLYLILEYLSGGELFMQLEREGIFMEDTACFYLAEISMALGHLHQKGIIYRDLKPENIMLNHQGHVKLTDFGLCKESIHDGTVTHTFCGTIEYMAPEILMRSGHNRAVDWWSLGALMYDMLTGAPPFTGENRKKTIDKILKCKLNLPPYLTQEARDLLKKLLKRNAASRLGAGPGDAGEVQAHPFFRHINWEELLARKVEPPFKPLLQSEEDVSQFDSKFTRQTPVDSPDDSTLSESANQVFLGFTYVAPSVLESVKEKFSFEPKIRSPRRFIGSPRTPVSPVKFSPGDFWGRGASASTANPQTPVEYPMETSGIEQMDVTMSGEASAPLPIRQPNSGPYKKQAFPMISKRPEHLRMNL

[19] = target: Ribosomal protein S6 kinase alpha-3 (Homo sapiens, UniProt P51812); assay: Inhibition of recombinant human RSK2 using Histone H3 full length as substrate incubate for 10 mins by LANCE assay
[20] = target: Receptor tyrosine-protein kinase erbB-4 (Homo sapiens, UniProt Q15303); assay: Inhibition of ErBB4 (unknown origin)
[21] = Tmax in Sprague-Dawley rat at 3 mg/kg, iv measured up to 24 hrs by LC-MS/MS analysis; type: ADME, organism-based; conditions: in vivo
[22] = Metabolic stability in dog liver microsomes assessed as intrinsic clearance at 100 uM/L measured upto 90 mins by LC-MS/MS analysis; type: ADME, Canis lupus familiaris, Microsome; conditions: 1.5 h
[23] = target: Tyrosine-protein kinase HCK (Homo sapiens, UniProt P08631); assay: Inhibition of HCK (unknown origin)
Chain of Tyrosine-protein kinase HCK (P08631 whole entry): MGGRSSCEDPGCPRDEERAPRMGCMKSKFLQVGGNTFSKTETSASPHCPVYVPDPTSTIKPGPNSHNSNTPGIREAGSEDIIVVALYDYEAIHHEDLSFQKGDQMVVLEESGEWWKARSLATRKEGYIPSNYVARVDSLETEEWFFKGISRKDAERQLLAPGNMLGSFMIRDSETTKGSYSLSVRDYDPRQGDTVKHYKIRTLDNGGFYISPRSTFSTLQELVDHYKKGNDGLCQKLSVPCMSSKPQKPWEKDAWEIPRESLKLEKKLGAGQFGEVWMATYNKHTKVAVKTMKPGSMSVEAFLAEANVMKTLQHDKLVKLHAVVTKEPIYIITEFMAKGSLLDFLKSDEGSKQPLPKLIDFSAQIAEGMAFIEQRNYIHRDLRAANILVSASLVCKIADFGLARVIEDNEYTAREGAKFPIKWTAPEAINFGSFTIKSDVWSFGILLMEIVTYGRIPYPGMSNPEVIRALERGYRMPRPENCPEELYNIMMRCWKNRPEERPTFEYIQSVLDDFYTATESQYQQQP

HEK293 = assay: Cytotoxicity against human HEK293 cells assessed as reduction in cell viability incubated for 72 hrs by MTT assay; type: ADME, cell-based; conditions: HEK293, 72 h
[24] = Toxicity in BALB/c mouse assessed as clinical signs at 2 g/kg, po measured after 7 days of administration; conditions: in vivo, 168 h
[25] = target: Epidermal growth factor receptor (Homo sapiens, UniProt P00533)
[26] = target: T1, Tyrosine-protein kinase BTK; assay: Inhibition of BTK in human Daudi cells assessed as reduction in BTK Y551 phosphorylation at 0.03 to 10 uM incubated for 1 hr by Western blot analysis; type: cell-based; conditions: dose 0.03-10 µM
[27] = Toxicity in BALB/c mouse assessed as effect on kidney at 2 g/kg, po measured after 7 days of administration by histopathological analysis; conditions: in vivo, 168 h
[28] = Cmax in Sprague-Dawley rat at 3 mg/kg, po measured up to 24 hrs by LC-MS/MS analysis; type: ADME, organism-based; design: route oral, dose 3 mg/kg, time <=24; conditions: in vivo
[29] = target: T1, Tyrosine-protein kinase BTK; assay: Inhibition of BTK in human Raji cells assessed as reduction in BTK Y551 phosphorylation at 0.03 to 10 uM incubated for 1 hr by Western blot analysis; type: cell-based; conditions: dose 0.03-10 µM
[30] = Toxicity in BALB/c mouse assessed as free movement at 2 g/kg, po measured after 7 days of administration; conditions: in vivo, 168 h
THP-1 = assay: Cytotoxicity against human THP-1 cells assessed as reduction in cell viability incubated for 72 hrs by MTT assay; type: ADME, cell-based; conditions: THP-1, 72 h
[31] = AUC (0 to t) in Sprague-Dawley rat at 3 mg/kg, po measured up to 24 hrs by LC-MS/MS analysis; type: ADME, organism-based; design: route oral, dose 3 mg/kg, time <=24; conditions: in vivo
[32] = target: T1, Tyrosine-protein kinase BTK; assay: Inhibition of BTK in human Daudi cells assessed as reduction in BTK Y223 phosphorylation incubated for 1 hr by Western blot analysis; type: cell-based; conditions: dose 0.03-10 µM
[33] = target: Ribosomal protein S6 kinase alpha-1 (Homo sapiens, UniProt Q15418); assay: Inhibition of RSK1 (unknown origin)
[34] = Clearance in Sprague-Dawley rat at 3 mg/kg, iv measured up to 24 hrs by LC-MS/MS analysis; type: ADME, organism-based; conditions: in vivo
[35] = target: NT-3 growth factor receptor (Homo sapiens, UniProt Q16288); assay: Inhibition of TRKc (unknown origin)
Chain of NT-3 growth factor receptor (Q16288 whole entry): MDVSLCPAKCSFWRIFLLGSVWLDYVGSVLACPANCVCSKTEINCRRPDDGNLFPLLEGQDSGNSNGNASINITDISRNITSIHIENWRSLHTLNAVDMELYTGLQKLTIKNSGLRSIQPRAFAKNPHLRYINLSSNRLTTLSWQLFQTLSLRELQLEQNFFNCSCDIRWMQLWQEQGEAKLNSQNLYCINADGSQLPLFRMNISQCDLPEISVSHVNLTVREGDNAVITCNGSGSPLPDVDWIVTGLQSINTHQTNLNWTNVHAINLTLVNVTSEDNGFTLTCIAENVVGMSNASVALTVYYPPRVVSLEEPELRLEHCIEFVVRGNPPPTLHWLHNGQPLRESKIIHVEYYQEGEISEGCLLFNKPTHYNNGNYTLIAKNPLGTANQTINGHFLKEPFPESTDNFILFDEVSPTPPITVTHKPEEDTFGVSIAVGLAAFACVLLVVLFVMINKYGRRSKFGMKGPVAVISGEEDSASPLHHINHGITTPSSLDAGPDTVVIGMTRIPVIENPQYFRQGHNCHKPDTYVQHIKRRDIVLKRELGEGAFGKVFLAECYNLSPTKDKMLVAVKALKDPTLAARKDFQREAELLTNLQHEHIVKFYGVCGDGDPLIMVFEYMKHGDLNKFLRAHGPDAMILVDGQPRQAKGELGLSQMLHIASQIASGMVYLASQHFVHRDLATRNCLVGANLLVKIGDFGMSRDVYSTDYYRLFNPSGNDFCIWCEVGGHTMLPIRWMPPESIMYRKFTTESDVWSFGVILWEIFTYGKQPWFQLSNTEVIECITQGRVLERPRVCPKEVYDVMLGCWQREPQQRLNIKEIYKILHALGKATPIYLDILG

[36] = Inhibition of GSK3alpha/GSK3beta (unknown origin); design: species or system Homo sapiens
[37] = Metabolic stability in dog liver microsomes assessed as half life at 100 uM/L measured upto 90 mins by LC-MS/MS analysis; type: ADME, Canis lupus familiaris, Microsome
[38] = Metabolic stability in mouse liver microsomes assessed as half life at 100 uM/L measured upto 90 mins by LC-MS/MS analysis; type: ADME, Microsome

## C=CC(=O)N1CCC(Cn2cc(-c3ccc4c(c3)OCO4)c3c(N)ncnc32)CC1
[1]
  IC50: > 10 µM
[2]
  IC50: > 10 µM
[3]
  Activity: Non-Toxic
[4]
  inhibition: inactive
[5]
  IC50: 0.64 µM
[6]
  CLH: 5.4 µL/min/mg
[7]
  IC50: > 10 µM
L02
  IC50: 31.3 µM
[8]
  IC50: 0.331 µM
Mus musculus
  Activity: Active
[9]
  IC50: > 10 µM
[10]
  IC50: > 10 µM
[11]
  CLH: 7.4 µL/min/mg
[12]
  IC50: > 10 µM
[13]
  IC50: > 10 µM
[14]
  IC50: > 10 µM
[15]
  Activity: Non-Toxic
[16]
  inhibition: Active
[17]
  inhibition: Dose-dependent effect
[18]
  IC50: > 10 µM
[19]
  IC50: > 10 µM
[20]
  IC50: > 10 µM
[21]
  Tmax: 6.6 min
[22]
  CLH: 4.4 µL/min/mg
[23]
  IC50: 1.11 µM
HEK293
  IC50: 34.2 µM
[24]
  Activity: Non-Toxic
[25]
  IC50: > 10 µM
[26]
  inhibition: inactive
[27]
  Activity: Non-Toxic
[28]
  Cmax: 258 ng/mL
[29]
  inhibition: inactive
[30]
  Activity: Non-Toxic
THP-1
  IC50: 38.9 µM
[31]
  AUC(0-t) at 24 h: 1240 ng·h/mL
[32]
  inhibition: Dose-dependent effect
[33]
  IC50: > 10 µM
[34]
  CL: 137 mL/min/kg
[35]
  IC50: > 10 µM
[36]
  IC50: > 10 µM
[37]
  half-life at 100 µM: 5.25 h
[38]
  half-life at 100 µM: 4.28 h
